The experiment relates to Pigmented human epidermal equivalents (MelanoDerm™). Nature of the experiment: In vitro test for depigmentation activity in pigmented human epidermal equivalents (MelanoDerm, MEL-300-B). It counts as cell-based. Particulars: applied topically daily for 8 days, measured on day 9. An excerpt: Pigmented human epidermal equivalents (MelanoDerm™) from MatTek Corporation (Ashland, Mass.) were used to assess the depigmentation activity of test materials. MelanoDerm™ consists of normal, human-derived epidermal keratinocytes (NHEK) and melanocytes (NHM) which have been cultured to form a multilayered, highly differentiated model of the human epidermis. Specifically, MEL-300-B tissues, each 9 mm in diameter were used in the following tests.
The Example 2 ascorbic acid powder mixture was compared with 1% Ascorbic Acid 2-Glucoside (Hayashibara Co Ltd, Japan) in a solvent of 70% ethyl alcohol and 30% butylene glycol as a benchmark. Test materials were applied topically to the MelanoDerm™ skin model daily and the experiment lasted for 8 days. Measurement was taken on day 9. The macroscopic and microscopic visual tissue darkening end points were measured by taking pictures with a digital camera. The Degree of Lightness for each tissue (L-Value) was measured using a spectrophotometer (Konica Minolta CM-2600d). The ΔL (degree of lightness as compared to control) for each test sample is calculated as per following formula: […]
Degree of skin lightness:
ΔL*=L*-value of treated sample−L*-value of control sample.
ΔMexa Index=Melanin Index of control−Melanin Index of treated sample.

Turning to `O=C1O[C@H]([C@@H](O)CO)C(O)=C1O[C@H]1O[C@H](CO)[C@@H](O)[C@H](O)[C@H]1O` [1% ascorbic acid 2-glucoside in vehicle, Ascorbic Acid 2-Glucoside], the “Δ Mexa Index (Melanin Index of control minus treated sample)” value turned out to be 145.67. Moreover, the “Δ L-value (degree of skin lightness, treated minus control)” value (spectrophotometer) is on record as 2.34.

These data come from patent US20150359742A1, “COMPOSITIONS AND METHODS FOR ENHANCING THE TOPICAL APPLICATION OF A BENEFIT AGENT INCLUDING POWDER TO LIQUID PARTICLES AND A SECOND POWDER” (Johnson & Johnson Consumer Inc., priority 2014, published 2015).
